Assay results: patent US9040542B2, “Solid forms of gyrase inhibitor (R)-1-ethyl-3-[6-fluoro-5-[2-(1-hydroxy-1-methyl-ethyl)pryimidin-5-yl]-7-(tetrahydrofuran-2-yl)-1H-benzimidazol-2-yl]urea” (priority 2011, dated 2015)

Experiments:
S. aureus DNA gyrase = S. aureus DNA gyrase (Staphylococcus aureus, UniProt P0A0K8); experiment: DNA Gyrase ATPase Assay; type: biochemical; settings: 30° C., read-out: Ki, Inhibition of S. aureus DNA Gyrase
Description: The ATP hydrolysis activity of S. aureus DNA gyrase is measured by coupling the production of ADP through pyruvate kinase/lactate dehydrogenase to the oxidation of NADH. This method has been described previously (Tamura and Gellert, 1990, J. Biol. Chem., 265, 21342).
ATPase assays are carried out at 30° C. in buffered solutions containing 100 mM TRIS pH 7.6, 1.5 mM MgCl2, 150 mM KCl. The coupling system contains final concentrations of 2.5 mM phosphoenol pyruvate, 200 μM nicotinamide adenine dinucleotide (NADH), 1 mM DTT, 30 ug/ml pyruvate kinase, and 10 ug/ml lactate dehydrogenase. The enzyme (90 nM final concentration) and a DMSO solution (3% final concentration) of a compound is added. The reaction mixture is allowed to incubate for 10 minutes at 30° C. The reaction is initiated by the addition of ATP to a final concentration of 0.9 mM, and the rate of NADH disappearance is monitored at 340 nanometers over the course of 10 minutes. The Ki and IC50 values are determined from rate versus concentration profiles.

[1] = Stability data of solid forms on storage; type: physicochemical
S. aureus TopoIV enzyme = S. aureus TopoIV enzyme (Staphylococcus aureus, UniProt P0C1S7); experiment: DNA Topo IV ATPase Assay; type: biochemical; settings: 30° C., read-out: Ki, Inhibition of S. aureus DNA Topo IV
Description: The conversion of ATP to ADP by S. aureus TopoIV enzyme is coupled to the conversion of NADH to NAD+, and the progress of the reaction is measured by the change in absorbance at 340 nm. TopoIV (64 nM) is incubated with the selected compound (3% DMSO final) in buffer for 10 minutes at 30° C. The buffer consists of 100 mM Tris 7.5, 1.5 mM MgCl2, 200 mM K•Glutamate, 2.5 mM phosphoenol pyruvate, 0.2 mM NADH, 1 mM DTT, 5 μg/mL linearized DNA, 50 μg/mL BSA, 30 μg/mL pyruvate kinase, and 10 μg/mL lactate dehyrodgenase (LDH). The reaction is initiated with ATP, and rates are monitored continuously for 20 minutes at 30° C. on a Molecular Devices SpectraMAX plate reader. The inhibition constant, Ki, and the IC50 are determined from plots of rate vs. concentration of selected compound fit to the Morrison Equation for tight binding inhibitors.

Q: For `CCNC(=O)Nc1nc2cc(-c3cnc(C(C)(C)O)nc3)c(F)c([C@H]3CCCO3)c2[nH]1` [Compound 23, 1-ethyl-3-[6-fluoro-5-[2-(1-hydroxy-1-methyl-ethyl)pyrimidin-5-yl]-7-[(2R)-tetrahydrofuran-2-yl]-1H-benzimidazol-2-yl]urea], which Ki (S. aureus DNA gyrase) is on record?
A: 9 nM

Q: And the “stability of solid form” value ([1]; 40° C. with relative humidity of up to 75%)?
A: stable for at least one month

Q: What about the “chemical and physical stability” value ([1]; all storage conditions (25° C./60% RH, 40° C./ambient, and 40° C./75% RH), 1 month timepoint) of the same compound?
A: chemically and physically stable

Q: And the Ki (S. aureus TopoIV enzyme)?
A: 12 nM
